Reference: ChEMBL document CHEMBL3351875, “Synthesis of Deuterated Benzopyran Derivatives as Selective COX-2 Inhibitors with Improved Pharmacokinetic Properties” (ACS Med Chem Lett, 2014)

Legend:
[1] = Oral bioavailability in Sprague-Dawley rat at 30 mg/kg measured during 1 to 24 hrs by LC-MS method; format: ADME, organism-based; conditions: in vivo
[2] = AUC (0 to infinity) in Sprague-Dawley rat at 10 mg/kg, iv measured during 1 to 24 hrs by LC-MS method; format: ADME, organism-based; set-up: time infinity, dose 10 mg/kg, route intravenous; conditions: plasma
[3] = Tmax in Sprague-Dawley rat at 30 mg/kg, po measured during 1 to 24 hrs by LC-MS method; format: ADME, organism-based; set-up: dose 30 mg/kg, route oral; conditions: in vivo
[4] = Volume of distribution in Sprague-Dawley rat at 10 mg/kg, iv measured during 1 to 24 hrs by LC-MS method; format: ADME, organism-based; set-up: dose 10 mg/kg, route intravenous; conditions: in vivo
[5] = tested on: Rattus norvegicus; test: Volume of distribution in Sprague-Dawley rat at 30 mg/kg, po measured during 1 to 24 hrs by LC-MS method; format: ADME, organism-based; set-up: dose 30 mg/kg, route oral; conditions: in vivo
[6] = Cmax in Sprague-Dawley rat at 10 mg/kg, iv measured during 1 to 24 hrs by LC-MS method; format: ADME, organism-based; set-up: dose 10 mg/kg, route intravenous; conditions: in vivo
[7] = AUC (0 to infinity) in Sprague-Dawley rat at 30 mg/kg, po measured during 1 to 24 hrs by LC-MS method; format: ADME, organism-based; set-up: time infinity, dose 30 mg/kg, route oral; conditions: plasma
[8] = Apparent oral clearance in Sprague-Dawley rat at 30 mg/kg, po measured during 1 to 24 hrs by LC-MS method; format: ADME, organism-based; set-up: dose 30 mg/kg, route oral; conditions: in vivo
[9] = tested on: Rattus norvegicus; test: Half life in Sprague-Dawley rat at 10 mg/kg, iv measured during 1 to 24 hrs by LC-MS method; format: ADME, organism-based; set-up: dose 10 mg/kg, route intravenous; conditions: in vivo
[10] = Apparent oral clearance in Sprague-Dawley rat at 10 mg/kg, iv measured during 1 to 24 hrs by LC-MS method; format: ADME, organism-based; set-up: dose 10 mg/kg, route oral; conditions: in vivo
[11] = Cmax in Sprague-Dawley rat at 30 mg/kg, po measured during 1 to 24 hrs by LC-MS method; format: ADME, organism-based; set-up: dose 30 mg/kg, route oral; conditions: in vivo
[12] = Half life in Sprague-Dawley rat at 30 mg/kg, po measured during 1 to 24 hrs by LC-MS method; format: ADME, organism-based; set-up: dose 30 mg/kg, route oral; conditions: in vivo
[13] = tested on: Rattus norvegicus; test: AUC (0 to infinity) in Sprague-Dawley rat at 2.5 mg/kg, iv measured during 1 to 24 hrs by LC-MS method; format: ADME, organism-based, Plasma; set-up: time infinity, dose 2.5 mg/kg, route intravenous; conditions: in vivo
[14] = Volume of distribution in Sprague-Dawley rat at 2.5 mg/kg, iv measured during 1 to 24 hrs by LC-MS method; format: ADME, organism-based; set-up: dose 2.5 mg/kg, route intravenous; conditions: in vivo
[15] = tested on: Rattus norvegicus; test: Half life in Sprague-Dawley rat at 2.5 mg/kg, iv measured during 1 to 24 hrs by LC-MS method; format: ADME, organism-based; set-up: dose 2.5 mg/kg, route intravenous; conditions: in vivo
[16] = tested on: Rattus norvegicus; test: Antiinflammatory activity in orally dosed Sprague-Dawley rat model of carrageenan-induced air pouch inflammation assessed as reduction in PGE2 level by ELISA method; format: functional, organism-based
[17] = Apparent oral clearance in Sprague-Dawley rat at 5 mg/kg, po measured during 1 to 24 hrs by LC-MS method; format: ADME, organism-based; set-up: dose 5 mg/kg, route oral; conditions: in vivo
[18] = molecular target: T1, Prostaglandin G/H synthase 2 (Homo sapiens, UniProt P35354); test: Inhibition of human recombinant COX2 pre-incubated for 15 mins before fluorometric substrate addition by fluorescence based assay
T1 sequence (P35354 whole entry): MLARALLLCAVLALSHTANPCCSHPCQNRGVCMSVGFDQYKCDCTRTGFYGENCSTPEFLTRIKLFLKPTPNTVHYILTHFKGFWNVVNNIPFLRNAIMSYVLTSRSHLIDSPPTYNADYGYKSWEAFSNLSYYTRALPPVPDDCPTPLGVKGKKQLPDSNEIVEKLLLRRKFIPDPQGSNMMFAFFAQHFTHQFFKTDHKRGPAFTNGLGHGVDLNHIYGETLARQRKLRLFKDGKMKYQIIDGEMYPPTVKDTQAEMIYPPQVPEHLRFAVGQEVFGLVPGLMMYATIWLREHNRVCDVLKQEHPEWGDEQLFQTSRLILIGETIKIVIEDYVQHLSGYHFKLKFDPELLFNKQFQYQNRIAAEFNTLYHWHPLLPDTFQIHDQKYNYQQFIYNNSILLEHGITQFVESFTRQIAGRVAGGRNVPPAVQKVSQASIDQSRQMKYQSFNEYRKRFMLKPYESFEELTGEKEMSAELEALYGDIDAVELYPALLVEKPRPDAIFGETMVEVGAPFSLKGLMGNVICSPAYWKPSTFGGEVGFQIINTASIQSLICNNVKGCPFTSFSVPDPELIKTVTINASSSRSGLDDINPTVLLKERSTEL

[19] = Apparent oral clearance in Sprague-Dawley rat at 2.5 mg/kg, iv measured during 1 to 24 hrs by LC-MS method; format: ADME, organism-based; set-up: dose 2.5 mg/kg, route oral; conditions: in vivo
[20] = tested on: Rattus norvegicus; test: Antiarthritic activity in Lewis rat model of adjuvant-induced arthritis administrated by oral gavage once daily; format: functional; conditions: tested as the 2H-labelled form
[21] = tested on: Rattus norvegicus; test: Antiinflammatory activity in orally dosed Sprague-Dawley rat model of carrageenan-induced foot paw edema assessed as reduction in edema by plethysmometry; format: functional, organism-based
[22] = Cmax in Sprague-Dawley rat at 5 mg/kg, po measured during 1 to 24 hrs by LC-MS method; format: ADME, organism-based; set-up: dose 5 mg/kg, route oral; conditions: in vivo
[23] = tested on: Rattus norvegicus; test: Volume of distribution in Sprague-Dawley rat at 5 mg/kg, po measured during 1 to 24 hrs by LC-MS method; format: ADME, organism-based; set-up: dose 5 mg/kg, route oral; conditions: in vivo
[24] = Cmax in Sprague-Dawley rat at 2.5 mg/kg, iv measured during 1 to 24 hrs by LC-MS method; format: ADME, organism-based; set-up: dose 2.5 mg/kg, route intravenous; conditions: in vivo
[25] = molecular target: Prostaglandin G/H synthase 1 (Homo sapiens, UniProt P23219); test: Inhibition of human recombinant COX1 pre-incubated for 15 mins before fluorometric substrate addition by fluorescence based assay
Sequence of Prostaglandin G/H synthase 1 (P23219 whole entry): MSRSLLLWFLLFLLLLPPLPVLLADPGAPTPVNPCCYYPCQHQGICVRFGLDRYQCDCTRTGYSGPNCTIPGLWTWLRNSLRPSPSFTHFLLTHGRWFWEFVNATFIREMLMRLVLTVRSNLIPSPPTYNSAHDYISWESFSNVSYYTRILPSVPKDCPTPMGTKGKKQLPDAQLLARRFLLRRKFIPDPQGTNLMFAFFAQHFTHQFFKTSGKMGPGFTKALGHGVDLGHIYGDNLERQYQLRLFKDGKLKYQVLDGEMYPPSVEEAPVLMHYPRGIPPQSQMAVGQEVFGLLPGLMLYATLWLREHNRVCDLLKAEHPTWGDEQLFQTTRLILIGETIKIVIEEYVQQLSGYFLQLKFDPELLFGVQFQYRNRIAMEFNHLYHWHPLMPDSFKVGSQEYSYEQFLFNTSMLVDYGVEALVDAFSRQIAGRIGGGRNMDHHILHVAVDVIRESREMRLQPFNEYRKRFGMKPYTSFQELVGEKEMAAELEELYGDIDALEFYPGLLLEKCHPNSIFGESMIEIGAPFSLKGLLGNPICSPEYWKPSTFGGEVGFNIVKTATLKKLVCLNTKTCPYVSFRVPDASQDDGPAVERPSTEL

[26] = tested on: Rattus norvegicus; test: Half life in Sprague-Dawley rat at 5 mg/kg, po measured during 1 to 24 hrs by LC-MS method; format: ADME, organism-based; set-up: dose 5 mg/kg, route oral; conditions: in vivo
[27] = tested on: Rattus norvegicus; test: Tmax in Sprague-Dawley rat at 5 mg/kg, po measured during 1 to 24 hrs by LC-MS method; format: ADME, organism-based; set-up: dose 5 mg/kg, route oral; conditions: in vivo
[28] = tested on: Rattus norvegicus; test: AUC (0 to infinity) in Sprague-Dawley rat at 5 mg/kg, po measured during 1 to 24 hrs by LC-MS method; format: ADME, organism-based, Plasma; set-up: time infinity, dose 5 mg/kg, route oral; conditions: in vivo
[29] = Oral bioavailability in Sprague-Dawley rat at 5 mg/kg measured during 1 to 24 hrs by LC-MS method; format: ADME, organism-based; conditions: in vivo
[30] = tested on: Rattus norvegicus; test: Antinociceptive activity in orally dosed Sprague-Dawley rat model of carrageenan-induced foot paw hyperalgesia assessed as paw withdrawal latency; format: functional, organism-based

Q: For [2H]C([2H])([2H])C([2H])([2H])c1cc(OC(F)(F)F)cc2c1OC(C(F)(F)F)C(C(=O)O)=C2 (stereo not given), which bioavailability [1] is on record?
A: 60.2%

Q: And the AUC(0-inf) [2]?
A: 223 µg·h/mL

Q: And the Tmax [3]?
A: 1.25 h

Q: And the Vd [4]?
A: 0.39 L/kg

Q: What about the Vd [5] of the same compound?
A: 0.491 L/kg

Q: And the Cmax [6]?
A: 51600 ng/mL

Q: And the AUC(0-inf) [7]?
A: 403 µg·h/mL

Q: What about the CL/F [8] of the same compound?
A: 1.25 mL/min/kg

Q: What about the t1/2 [9] of the same compound?
A: 5.946 h

Q: And the CL/F [10]?
A: 0.783 mL/min/kg

Q: And the Cmax [11]?
A: 33500 ng/mL

Q: What about the half-life [12] of the same compound?
A: 4.54 h

Q: Which AUC [13] does the source give for Cc1cc(Br)cc2c1OC(C(F)(F)F)C(C(=O)O)=C2 (stereo not given) here?
A: 14.843535 µg·h/mL

Q: And the Vd [14]?
A: 0.15 L/kg

Q: And the t1/2 [15]?
A: 0.58 h

Q: What about the EC50 [16] of the same compound?
A: 0.47 mg/kg

Q: And the CL/F [17]?
A: 4.97 mL/min/kg

Q: What about the IC50 [18] of the same compound?
A: 28 nM

Q: What about the CL/F [19] of the same compound?
A: 2.87 mL/min/kg

Q: And the inhibition [20]?
A: Dose-dependent effect

Q: And the EC50 [21]?
A: 3.47 mg/kg

Q: What about the Cmax [22] of the same compound?
A: 11500 ng/mL

Q: What about the Vd [23] of the same compound?
A: 0.65 L/kg

Q: And the Cmax [24]?
A: 38600 ng/mL

Q: And the IC50 [25]?
A: > 100000 nM

Q: What about the t1/2 [26] of the same compound?
A: 1.51 h

Q: What about the Tmax [27] of the same compound?
A: 0.438 h

Q: And the AUC [28]?
A: 17.19028 µg·h/mL

Q: And the bioavailability [29]?
A: 46.3%

Q: What about the EC50 [30] of the same compound?
A: 3.52 mg/kg
